From patent US20090156473A1, “PHARMACEUTICAL COMPOSITION FOR THE TREATMENT OF VIRAL INFECTIONS AND/OR TUMOR DISEASES BY INHIBITING PROTEIN FOLDING AND PROTEIN BREAKDOWN” (Virologik GmbH, priority 2006, published 2009)

How the values were obtained:
[1] = tested on: HeLaSS6 cells transfected with subgenomic HIV-1 expression vector pNLenv1; test: Time kinetics of Gag processing and virus release, Western blot of cell and virus fractions; format: cell-based; settings: 100 nM 17-AAG vs inhibitor-free medium
Procedure: Time kinetics were studied for biochemical analysis of the influence of 17-AAG on the kinetics of Gag processing and virus release. The experimental details of cultivation, transfection, media exchange and time kinetics are reported in Example 4a/b. For this purpose there were used cultures of HeLaSS6 cells that had been transfected with pNLenv1 (Schubert et al., 1995). Following incubation in 17-AAG-containing medium (100 nM 17-AAG) or inhibitor-free medium, the kinetic studies were begun after distinct washing steps and aliquoting of the preparations. Aliquot cell cultures were taken at each time and separated into cell, virus and cell-culture supernatant fractions by centrifugation. The HIV proteins were separated by SDS PAGE, transferred onto PVDF membranes and then made visible on x-ray films by antibody-mediated chemiluminescence.
HeLa cells (ATCC CCL2) were cultivated in Dulbeccos' modified Eagle's medium (DMEM) with 10% fetal calf serum, 2 mM L-glutamine, 100 U/mL penicillin and 100 μg/mL streptomycin.
HeLa cells (ATCC CCL2) were transfected using a mixture of pNLΔenv and lipofectamine2000 in OPTI-MEM. A media exchange was undertaken after 8 hours of incubation at 37° C. and 5% CO2. […] The HIV-specific and cell-specific proteins were detected via specific antibodies (to Hsp70; Hsp90; p24; PR55; β-actin). […]

X4-trophic HI viruses = test: HLAC model (human tonsil cells) infected with X4-trophic HI viruses, RT assay of supernatants; format: cell-based, HIV-1; settings: for virus replication of X4-trophic HI viruses (RT data): tonsil A; for X4-trophic HIV replication (RT data): tonsil B
Procedure: Human tonsils were macerated and transferred into 96-well plates. After one day of incubation, the cells were infected with X4-trophic HI viruses, mixed with the corresponding inhibitors and washed on the following day. These and also the subsequent steps are described in detail under Example 4c-d. At each kinetic point, 150 μL of medium was removed and stored at −80° C. until measurement at RT. The medium that was again added contained the inhibitor concentrations necessary for the special preparation.
After 15 days, the proportion of functional HI viruses formed was determined by means of RT assays (see Example 4e) of the stored supernatants.
Tonsil cells were cultivated in RPMI 1640 with 15% (V/V) fetal calf serum, 2 mM L-glutamine, 100 U/mL penicillin, 100 μg/mL streptomycin, 2.5 μg/mL Fungizone, 1 mM sodium pyrovate, 1% MEM non-essential amino acid solution and 50 μg/mL gentanamycin (“tonsil medium”).
To produce virus preparations, plasmid DNA of molecular HIV-1 DNA was transfected into HeLa cells using the calcium phosphate precipitation method. For this purpose, confluent cultures of HeLa cells (5×10^6 cells) were incubated with 25 μg of plasmid DNA in calcium phosphate crystals, produced according to a method of Graham and van der Eb (1973), then subjected to glycerol shock according to Gorman et al. (1982). To obtain concentrated virus preparations, the cell culture supernatants were harvested two days after transfection. Thereafter the cells as well as their constituents were separated by centrifugation (1000 g, 5 minutes, 4° C.) and filtration (0.45 μm pore size). Virus particles were pelleted by ultracentrifugation (Beckman SW55 rotor, 1.5 hours, 35,000 rpm, 10° C.) and then resuspended in 1 mL of DMEM medium. The virus preparations were sterilized by filtration (0.45 μm pore size) and were frozen in portions (−80° C.). Individual virus preparations were standardized by determination of the reverse transcriptase activity, specifically on the basis of an already described test (Willey et al., 1988), using [32P]-TTP incorporation into an oligo(dT)-poly(A) template.
The tonsil tissue was washed in PBS, then cleaned of blood clots and cut into pieces measuring 1 to 2 mm^2 with the scalpel. Individual cells were obtained by mechanical pressing through a filter gauze. Following centrifugation of the isolated cells (5 minutes, 1200 rpm), the cells were counted, seeded into 96-well plates and incubated overnight at 37° C. and 5% CO2. Infection of the cells was achieved by addition of 10 ng of X4-trophic HIV stocks and simultaneous application of the corresponding inhibitor concentrations. On the following day, 50 μL of supernatant was withdrawn (“1 dpi”) and stored at −80° C. Thereupon the cells were centrifuged (5 minutes, 1200 rpm) and a further 50 μL of supernatant was withdrawn. Following resuspension of the cells in 100 μL of tonsil medium, this washing step was repeated two times. Tonsil medium with the corresponding inhibitor concentrations was added and then the cells were re-incubated at 37° C. and 5% CO2. On days 3, 6, 9 and 12, 150 μL of medium was withdrawn and stored at −80° C., and 150 μL of medium with the corresponding inhibitor concentrations was added. On day 15, only 150 μL of supernatant was removed and stored at −80° C., after which the cells were discarded.
The tonsil supernatants stored at −80° C. were assayed by determination of the reverse transcriptase activity, specifically on the basis of an already described test (Willey et al., 1988), using [32P]-TTP incorporation into an oligo(dT)-poly(A) template.

SMILES	Gag processing in the virus fraction [1]	Hsp70 expression in the cell fraction [1]	virus replication of X4-trophic HI viruses in the HLAC model (X4-trophic HI viruses; summary statement of Example 3, RT assays after 15 days)	virus replication of X4-trophic HI viruses (RT data) (X4-trophic HI viruses; 10 nM 17-AAG alone)	virus replication of X4-trophic HI viruses (RT data) (X4-trophic HI viruses; single inhibitor at 1 nM)	X4-trophic HIV replication (RT data) (X4-trophic HI viruses; 10 nM 17-AAG alone)	X4-trophic HIV replication (RT data) (X4-trophic HI viruses; single inhibitor at 1 nM)
C=CCNC1=C2C[C@@H](C)C[C@H](OC)[C@H](O)[C@@H](C)/C=C(\C)[C@H](OC(N)=O)[C@@H](OC)/C=C\C=C(/C)C(=O)NC(=CC1=O)C2=O [17-AAG]	reduced Gag processing	intensified Hsp70 expression	inhibits the virus replication	not clearly influenced	not clearly influenced	distinct reduction of virus replication	did not exhibit any influence
CC(C)C[C@H](NC(=O)[C@H](Cc1ccccc1)NC(=O)c1cnccn1)B(O)O [PS341]					not clearly influenced		did not exhibit any influence
